In experiment [1] the target is T1, Caspase-1 (Homo sapiens, UniProt P29466).
T1 sequence (P29466 whole entry): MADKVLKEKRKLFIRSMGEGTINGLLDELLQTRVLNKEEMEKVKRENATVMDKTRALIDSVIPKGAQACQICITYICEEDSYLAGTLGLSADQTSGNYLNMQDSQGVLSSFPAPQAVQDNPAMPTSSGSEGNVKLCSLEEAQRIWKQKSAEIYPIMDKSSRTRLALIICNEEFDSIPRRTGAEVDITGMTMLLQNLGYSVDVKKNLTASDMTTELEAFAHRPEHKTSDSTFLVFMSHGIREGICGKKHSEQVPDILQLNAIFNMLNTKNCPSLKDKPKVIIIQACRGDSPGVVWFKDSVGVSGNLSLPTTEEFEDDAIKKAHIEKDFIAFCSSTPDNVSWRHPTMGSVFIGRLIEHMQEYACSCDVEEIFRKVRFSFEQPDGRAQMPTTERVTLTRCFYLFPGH
Kind of experiment: Inhibitory concentration against recombinant human caspase-1 in neuronal precursor (NT2) cells.

Experiment [2] addresses T2, Caspase-3 (Homo sapiens, UniProt P42574).
T2 sequence (P42574 whole entry): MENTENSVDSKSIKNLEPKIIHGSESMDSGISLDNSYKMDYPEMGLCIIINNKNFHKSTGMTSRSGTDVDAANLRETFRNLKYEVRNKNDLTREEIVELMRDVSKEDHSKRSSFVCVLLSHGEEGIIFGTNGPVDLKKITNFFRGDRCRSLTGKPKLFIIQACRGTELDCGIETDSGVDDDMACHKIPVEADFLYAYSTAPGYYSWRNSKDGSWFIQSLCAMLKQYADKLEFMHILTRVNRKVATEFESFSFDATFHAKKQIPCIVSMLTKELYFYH
Kind of experiment: Inhibitory concentration against recombinant human caspase-3 in neuronal precursor (NT2) cells.

Experiment [3] has as its target T3, Caspase-7 (Homo sapiens, UniProt P55210).
T3 sequence (P55210 whole entry): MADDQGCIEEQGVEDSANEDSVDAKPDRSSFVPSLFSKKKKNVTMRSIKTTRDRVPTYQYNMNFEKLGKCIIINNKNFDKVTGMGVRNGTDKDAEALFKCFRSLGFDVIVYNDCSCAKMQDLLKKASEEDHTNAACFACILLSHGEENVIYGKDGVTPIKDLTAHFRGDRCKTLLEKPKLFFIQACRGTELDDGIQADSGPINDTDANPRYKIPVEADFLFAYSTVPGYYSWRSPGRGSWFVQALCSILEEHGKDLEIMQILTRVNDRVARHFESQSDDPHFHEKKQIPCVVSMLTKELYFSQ
Kind of experiment: Inhibitory concentration against recombinant human caspase-7 […].

Experiment [4] has as its target Caspase-8 (Homo sapiens, UniProt Q14790). Kind of experiment: Inhibitory concentration against recombinant human caspase-8 […].
Experiment [5] has as its system NT2. Kind of experiment: Inhibitory concentration against camptothecin induced apoptosis in neuronal precursor (NT2) whole cells. The format is functional, cell-based. The conditions noted are these: Homo sapiens.

The text below walks through data of ChEMBL document CHEMBL1144330, “Novel pyrazinone mono-amides as potent and reversible caspase-3 inhibitors” (Bioorg Med Chem Lett, 2005).

A value given as a limit tells only on which side of the number the result lay.

What is called IC50 is the point on the concentration scale where inhibition reaches its midpoint.

Chain of Caspase-8 (Q14790 217-374 limits assumed): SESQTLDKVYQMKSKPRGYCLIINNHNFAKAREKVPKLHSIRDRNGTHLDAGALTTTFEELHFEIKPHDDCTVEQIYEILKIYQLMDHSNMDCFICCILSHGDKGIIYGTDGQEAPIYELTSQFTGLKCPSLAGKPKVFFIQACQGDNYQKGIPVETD
Chain of Caspase-8 (Q14790 385-479 limits assumed): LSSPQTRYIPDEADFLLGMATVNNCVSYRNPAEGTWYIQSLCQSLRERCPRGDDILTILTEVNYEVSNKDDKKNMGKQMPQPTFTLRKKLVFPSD

Turning to `CC[C@@H](C(=O)N[C@@H](CC(=O)O)C(=O)CSCc1ccccc1)n1cccc(NC(=O)[C@H](CC(=O)O)NC(C)=O)c1=O`, the half-inhibitory concentration (IC50) in experiment [1] came to 60 nM; in experiment [2], 0.3 nM; in experiment [3], 10 nM; in experiment [4], 220 nM; in experiment [5], 5200 nM.

As to `CCC(C(=O)N[C@@H](CC(=O)O)C(C)=O)n1cc(C(C)(C)C)nc(NCc2nonc2C)c1=O` (stereo not given in full), the half-maximal inhibitory concentration (IC50) worked out at 1230 nM in experiment [1]; 64 nM in experiment [2]; 480 nM in experiment [3]; 10000 nM in experiment [4]; 5120 nM in experiment [5].

`CCC(C(=O)N[C@@H](CC(=O)O)C(=O)CNCN1C2CCC1CC2)n1ccnc(NCc2nonc2C)c1=O` (stereo not given in full): the half-maximal inhibitory concentration (IC50) in experiment [1] was determined as 880 nM; in experiment [2] it was 23 nM; in experiment [3] it was 260 nM; in experiment [4] it was 9220 nM; in experiment [5], 1450 nM.

As for `CCC(C(=O)N[C@@H](CC(=O)O)C(=O)CNCN1CCOCC1)n1cc(C(C)(C)C)nc(NCc2nonc2C)c1=O` (stereo not given in full), the half-maximal inhibitory concentration (IC50) is 730 nM in experiment [1]; 110 nM in experiment [2]; 540 nM in experiment [3]; greater than 10000 nM in experiment [4]; 8620 nM in experiment [5].

For `CCC(C(=O)N[C@@H](CC(=O)O)C(=O)c1ncc(-c2ccccc2)o1)n1ccnc(NCc2nonc2C)c1=O` (stereo not given in full), the concentration for half-maximal inhibition (IC50) worked out at 460 nM in experiment [1]; 63 nM in experiment [2]; 750 nM in experiment [3]; 9570 nM in experiment [4]; 8390 nM in experiment [5].

As to `CCC(C(=O)N[C@@H](CC(=O)O)C(=O)CCCc1ccccc1)n1cc(C(C)(C)C)nc(NCc2nonc2C)c1=O` (stereo not given in full), the concentration for half-maximal inhibition (IC50) in experiment [1] amounted to 5130 nM; in experiment [2], 14 nM; in experiment [3], 140 nM; in experiment [4], 5280 nM; in experiment [5], 1380 nM.

Take `CCCCCCN(C)CNCC(=O)[C@H](CC(=O)O)NC(=O)C(CC)n1cc(C(C)C)nc(NCc2nonc2C)c1=O` (stereo not given in full): the IC50 in experiment [1] came to 63 nM; in experiment [2] it was 13 nM; in experiment [3], 65 nM; in experiment [4], 9040 nM; in experiment [5] it was 4.8 nM.

With `CCCCCN(C)CNCC(=O)[C@H](CC(=O)O)NC(=O)C(CC)n1cc(C(C)(C)C)nc(NCc2nonc2C)c1=O` (stereo not given in full), the IC50 in experiment [1] was determined as 110 nM; in experiment [2], 0.1 nM; in experiment [3], 36 nM; in experiment [4], 5950 nM; in experiment [5] it was 2.7 nM.

Regarding `CCC(C(=O)N[C@@H](CC(=O)O)C(=O)CNCN(C)C)n1ccnc(NCc2nonc2C)c1=O` (stereo not given in full), the IC50 was 890 nM in experiment [1]; 42 nM in experiment [2]; 310 nM in experiment [3]; greater than 10000 nM in experiment [4]; 2640 nM in experiment [5].

`CCC(C(=O)N[C@@H](CC(=O)O)C(=O)CN[C@@H](C)c1ccccc1)n1ccnc(NCc2nonc2C)c1=O` (stereo not given in full): the half-maximal inhibitory concentration (IC50) turned out to be 64 nM in experiment [1]; 14 nM in experiment [2]; 1040 nM in experiment [3]; 9260 nM in experiment [4]; 1200 nM in experiment [5].

Take `CCOCN(C)CNCC(=O)[C@H](CC(=O)O)NC(=O)C(CC)n1ccnc(NCc2nonc2C)c1=O` (stereo not given in full): the IC50 was 1750 nM in experiment [1]; 100 nM in experiment [2]; 1010 nM in experiment [3]; greater than 10000 nM in experiment [4]; 3990 nM in experiment [5].

Take `CCC(C(=O)N[C@@H](CC(=O)O)C(=O)CNCN(CC)CC)n1ccnc(NCc2nonc2C)c1=O` (stereo not given in full): the half-maximal inhibitory concentration (IC50) was 1140 nM in experiment [1]; 120 nM in experiment [2]; 3240 nM in experiment [3]; greater than 10000 nM in experiment [4]; 3900 nM in experiment [5].

On to `CCCN(C)CNCC(=O)[C@H](CC(=O)O)NC(=O)C(CC)n1ccnc(NCc2nonc2C)c1=O` (stereo not given in full), for which the half-inhibitory concentration (IC50) was 620 nM in experiment [1]; 17 nM in experiment [2]; 320 nM in experiment [3]; greater than 10000 nM in experiment [4]; 1420 nM in experiment [5].

`CCC(C(=O)N[C@@H](CC(=O)O)C(=O)CNCN(C)CC)n1ccnc(NCc2nonc2C)c1=O` (stereo not given in full): the half-maximal inhibitory concentration (IC50) in experiment [1] was 56 nM; in experiment [2] it was 26 nM; in experiment [3] it was 540 nM; in experiment [4] it was greater than 10000 nM; in experiment [5] it was 1530 nM.

For the molecule `CCC(C(=O)N[C@@H](CC(=O)O)C(=O)CNCN1CCc2ccccc2C1)n1ccnc(NCc2nonc2C)c1=O` (stereo not given in full), the IC50 in experiment [1] was determined as 13 nM; in experiment [2] it was 13 nM; in experiment [3], 83 nM; in experiment [4] it was 7380 nM; in experiment [5] it was 1250 nM.

Turning to `CCC(C(=O)N[C@@H](CC(=O)O)C(=O)CSCc1ccccc1)n1ccnc(NCCc2nc(C)no2)c1=O` (stereo not given in full), the half-inhibitory concentration (IC50) in experiment [1] is 900 nM; in experiment [2], 80 nM; in experiment [3], greater than 10000 nM; in experiment [4] it was 9100 nM; in experiment [5] it was 15300 nM.

In the case of `CCCCCCN(C)CNCC(=O)[C@H](CC(=O)O)NC(=O)C(CC)n1cc(C(C)(C)C)nc(NCc2nonc2C)c1=O` (stereo not given in full), the 50% inhibitory concentration (IC50) was 67 nM in experiment [1]; 6 nM in experiment [2]; 42 nM in experiment [3]; 6480 nM in experiment [4]; 21 nM in experiment [5].

On to `CCC(C(=O)N[C@@H](CC(=O)O)C(=O)CSCc1ccccc1)n1ccnc(NCCCc2nc(C)no2)c1=O` (stereo not given in full), for which the IC50 in experiment [1] is 1700 nM; in experiment [2] it was 53 nM; in experiment [3] it was 2600 nM; in experiment [4], greater than 10000 nM; in experiment [5] it was 7100 nM.

On to `CCCCCCN(C)CNCC(=O)[C@H](CC(=O)O)NC(=O)C(CC)n1cc(C(C)(CC)CC)nc(NCc2nonc2C)c1=O` (stereo not given in full), for which the concentration for half-maximal inhibition (IC50) is 110 nM in experiment [1]; 16 nM in experiment [2]; 87 nM in experiment [3]; greater than 10000 nM in experiment [4]; 25 nM in experiment [5].

For `CCC(C(=O)N[C@@H](CC(=O)O)C(=O)CNCN1Cc2ccccc2C1)n1ccnc(NCc2nonc2C)c1=O` (stereo not given in full), the IC50 in experiment [1] amounted to 8.7 nM; in experiment [2], 14 nM; in experiment [3], 130 nM; in experiment [4], 4290 nM; in experiment [5] it was 1520 nM.

With `CCC(C(=O)N[C@@H](CC(=O)O)C(=O)CNCN1CCCC1)n1ccnc(NCc2nonc2C)c1=O` (stereo not given in full), the half-inhibitory concentration (IC50) in experiment [1] came to 290 nM; in experiment [2] it was 33 nM; in experiment [3], 410 nM; in experiment [4], 6220 nM; in experiment [5] it was 840 nM.

In the case of `COc1ccc(S(C)(=O)=O)cc1CC(=O)N[C@H](C(=O)N[C@@H](CC(=O)O)C(=O)CSCc1ccccc1)C(C)C`, the IC50 in experiment [1] was found to be 1600 nM; in experiment [2] it was 5 nM; in experiment [3], 120 nM; in experiment [4], 490 nM; in experiment [5] it was 1000 nM.

On to `CCC(C(=O)N[C@@H](CC(=O)O)C(=O)CNCN1CCCCC1)n1cc(C(C)(C)C)nc(NCc2nonc2C)c1=O` (stereo not given in full), for which the IC50 in experiment [1] is 620 nM; in experiment [2], 21 nM; in experiment [3] it was 130 nM; in experiment [4], greater than 10000 nM; in experiment [5], 290 nM.

Regarding `CCC(C(=O)N[C@@H](CC(=O)O)C(=O)CNCN1CCC(Cc2ccccc2)CC1)n1ccnc(NCc2nonc2C)c1=O` (stereo not given in full), the IC50 in experiment [1] worked out at 47 nM; in experiment [2], 56 nM; in experiment [3], 840 nM; in experiment [4], 6020 nM; in experiment [5], 1620 nM.

As for `CC(=O)N[C@@H](CC(=O)O)C(=O)N[C@@H](CCC(=O)O)C(=O)N[C@H](C(=O)N[C@@H](CC(=O)O)C(=O)CCCc1ccccc1)C(C)C`, the half-inhibitory concentration (IC50) in experiment [1] was 310 nM; in experiment [2], 0.8 nM; in experiment [3] it was 8 nM; in experiment [4] it was 16 nM; in experiment [5], 30000 nM.
